Where two headings read alike, the source gives them in different places.
What was measured:
[1] = test system: MV4;11 cells; test: Cell Titer-Glo cell growth inhibition in MV4;11 cell line (Day 5 / Day 10); type: cell-based
Summary of the method: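 Cells seeded at 3750/well and treated with a 10-point, 4-fold dose curve from 0 to 50 µM; ATP-based luminescence viability read at Day 5. A portion is reseeded into fresh compound and media for 5 more days, read at Day 10; IC50 derived from luminescence.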

[2] = biological target: LSD1 (Homo sapiens, UniProt O60341); test: LSD1 fluorescence coupling enzyme assay (HRP/Amplex Red, H3(1-21)K4me2 peptide), 10-dose IC50; type: biochemical; settings: 10 μM histone H3(1-21)K4me2 peptide substrate, 3-fold serial dilution from 100 μM
Summary of the method: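 Fluorescence coupled assay: LSD1 demethylation of 10 μM H3(1-21)K4me2 peptide produces FAD-dependent H2O2, detected via HRP/Amplex Red as resorufin (Ex/Em 535/590 nm). IC50 from 10 doses, 3-fold serial dilution from 100 μM, in duplicate.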

[3] = Homo sapiens, MV4-11, 120 h, Day 5, read-out: Cell Titer-Glo IC50 (5 d)
[4] = Homo sapiens, MV4-11, 240 h, Day 10, read-out: Cell Titer-Glo IC50 (10 d)
[5] = Homo sapiens, 120 h, Day 5, read-out: Cell Titer-Glo IC50 (5 d)
[6] = Homo sapiens, 240 h, Day 10, read-out: Cell Titer-Glo IC50 (10 d)

| SMILES | IC50 [1, 3] [nM] | IC50 [1, 4] [nM] | IC50 [2] [nM] | IC50 [1, 5] [nM] | IC50 [1, 6] [nM] | IC50 ([1]; Day 5, read-out: Cell Titer-Glo IC50 (5 d)) [nM] | IC50 ([1]; Day 10, read-out: Cell Titer-Glo IC50 (10 d)) [nM] |
| --- | --- | --- | --- | --- | --- | --- | --- |
| N#Cc1ccc(-c2cc(NC[C@H]3CCCNCC3)nn2-c2ccc(N3CCS(=O)(=O)CC3)cc2)cc1F (single isomer, unassigned) [Example 26b] | < 500 | < 500 | < 500 |  |  |  |  |
| Cn1cc2cc(-n3nc(NC[C@@H]4CCNC4)cc3-c3ccc(C#N)c(F)c3)ccc2n1 [Example 21R, (R)-2-fluoro-4-(1-(2-methyl-2H-indazol-5-yl)-3-((pyrrolidin-3-ylmethyl)amino)-1H-pyrazol-5-yl)benzonitrile] | 500 to 1000 |  | 500 to 1000 |  |  |  |  |
| COc1ccc(-n2nc(NC[C@H]3C[C@H](N)C3)cc2-c2ccc(C#N)c(F)c2)cc1 [Example 42, 4-(3-((((1r,3r)-3-aminocyclobutyl)methyl)amino)-1-(4-methoxyphenyl)-1H-pyrazol-5-yl)-2-fluorobenzonitrile] | 1000 to 10000 | < 500 | 1000 to 10000 |  |  |  |  |
| COc1ccc(-n2nc(NCC3CCCNCC3)cc2-c2ccc(C#N)c(F)c2)cc1 (stereo not drawn) [Example 22, 4-(3-((azepan-4-ylmethyl)amino)-1-(4-methoxyphenyl)-1H-pyrazol-5-yl)-2-fluorobenzonitrile] | 1000 to 10000 | < 500 | < 500 |  |  |  |  |
| COc1ccc(-n2nc(NCC3CC3N)cc2-c2ccc(C#N)c(F)c2)cc1 (racemic) [Example 29, (±)-trans-4-(3-(((2-aminocyclopropyl)methyl)amino)-1-(4-methoxyphenyl)-1H-pyrazol-5-yl)-2-fluorobenzonitrile] | 1000 to 10000 | 1000 to 10000 | 1000 to 10000 |  |  |  |  |
| CS(=O)(=O)N1CCN(c2cccc(-n3nc(NC[C@H]4CCC[C@H](N)C4)cc3-c3ccc(C#N)c(F)c3)c2)CC1 [Example 49, 4-(3-((((1S,3S)-3-aminocyclohexyl)methyl)amino)-1-(3-(4-(methylsulfonyl)piperazin-1-yl)phenyl)-1H-pyrazol-5-yl)-2-fluorobenzonitrile] | 1000 to 10000 | < 500 | 1000 to 10000 |  |  |  |  |
| CC(C)n1ncc2cc(-n3nc(NC[C@@H]4CCC[C@@H](N)C4)cc3-c3ccc(C#N)c(F)c3)ccc21 [Example 73, 4-(3-((((1R,3R)-3-aminocyclohexyl)methyl)amino)-1-(1-isopropyl-1H-indazol-5-yl)-1H-pyrazol-5-yl)-2-fluorobenzonitrile] | 500 to 1000 | < 500 | < 500 |  |  |  |  |
| COc1ccc(-n2nc(NC[C@H]3C[C@@H](N)C3)cc2-c2ccc(C#N)c(F)c2)cc1 [Example 41, 4-(3-((((1s,3s)-3-aminocyclobutyl)methyl)amino)-1-(4-methoxyphenyl)-1H-pyrazol-5-yl)-2-fluorobenzonitrile] | < 500 | < 500 | < 500 |  |  |  |  |
| N#Cc1ccc(-c2cc(NC[C@@H]3CCC[C@@H](N)C3)nn2-c2ccc(C(=O)N3CCCC3)cc2)cc1F [Example 64, 4-(3-((((1R,3R)-3-aminocyclohexyl)methyl)amino)-1-(4-(pyrrolidine-1-carbonyl)phenyl)-1H-pyrazol-5-yl)-2-fluorobenzonitrile] | 1000 to 10000 | < 500 | 1000 to 10000 |  |  |  |  |
| Cn1nnc2ccc(-n3nc(NC[C@H]4CCC[C@H](N)C4)cc3-c3ccc(C#N)c(F)c3)cc21 [Example 74, 4-(3-((((15,3S)-3-aminocyclohexyl)methyl)amino)-1-(1-methyl-1H-benzo[d][1,2,3]triazol-6-yl)-1H-pyrazol-5-yl)-2-fluorobenzonitrile] | 1000 to 10000 | < 500 | 1000 to 10000 |  |  |  |  |
| COc1ccc(-n2nc(NCC3CCCNCC3)cc2-c2ccc(C#N)c(F)c2)cc1 (single isomer, unassigned) [Example 22a, 4-(3-((azepan-4-ylmethyl)amino)-1-(4-methoxyphenyl)-1H-pyrazol-5-yl)-2-fluorobenzonitrile] | < 500 | < 500 | < 500 |  |  |  |  |
| COc1ccc(-n2nc(NC[C@@H]3CCC[C@H](N)C3)cc2-c2ccc(C#N)c(F)c2)cc1 (single isomer, unassigned) [Example 5b] | < 500 |  | < 500 |  |  |  |  |
| COc1ccc(-n2nc(NCC3CC3N)cc2-c2ccc(C#N)c(F)c2)cc1 (single isomer, unassigned) [Example 29a, 4-(3-(((2-aminocyclopropyl)methyl)amino)-1-(4-methoxyphenyl)-1H-pyrazol-5-yl)-2-fluorobenzonitrile] | 1000 to 10000 | < 500 | 500 to 1000 |  |  |  |  |
| N#Cc1ccc(-c2cc(NC[C@H]3CCCNCC3)nn2-c2ccc(N3CCCC3)cc2)cc1F (single isomer, unassigned) [Example 24b] | < 500 | < 500 | < 500 |  |  |  |  |
| Cn1ncc2cc(-n3nc(NC[C@H]4CN5CCC4CC5)cc3-c3ccc(C#N)c(F)c3)ccc21 (single isomer, unassigned) [Example 31b] |  |  | < 500 | 500 to 1000 | < 500 |  |  |
| Cn1nc2ccc(-n3nc(NC[C@H]4CCC[C@H](N)C4)cc3-c3ccc(C#N)c(F)c3)cc2n1 [Example 69, 4-(3-((((15,3S)-3-aminocyclohexyl)methyl)amino)-1-(2-methyl-2H-benzo[d][1,2,3]triazol-5-yl)-1H-pyrazol-5-yl)-2-fluorobenzonitrile] |  | < 500 | < 500 |  |  |  |  |
| COc1ccc(-n2nc(NC[C@H]3CCC[C@H](N)C3)cc2-c2ccc(C(F)(F)F)c(F)c2)cc1 [Example 18, N-(((1S,3S)-3-aminocyclohexyl)methyl)-5-(3-fluoro-4-(trifluoromethyl)phenyl)-1-(4-methoxyphenyl)-1H-pyrazol-3-amine] | 500 to 1000 | 500 to 1000 | 1000 to 10000 |  |  |  |  |
| COc1ccc(-n2nc(N)cc2-c2ccc(C#N)c(F)c2)cc1 [Example 1, 4-(3-Amino-1-(4-methoxyphenyl)-1H-pyrazol-5-yl)-2-fluorobenzonitrile] | > 10000 |  | > 10000 |  |  |  |  |
| COc1ccc(-n2nc(NCC3CCCNCC3)cc2-c2ccc(C#N)c(F)c2)cc1 (single isomer, unassigned) [Example 22b, 4-(3-((azepan-4-ylmethyl)amino)-1-(4-methoxyphenyl)-1H-pyrazol-5-yl)-2-fluorobenzonitrile] |  |  | < 500 |  |  | 500 to 1000 | < 500 |
| N#Cc1ccc(-c2cc(NC[C@@H]3CCCNCC3)nn2-c2ccc(N3CCCC3)cc2)cc1F (single isomer, unassigned) [Example 24a] | < 500 | < 500 | < 500 |  |  |  |  |
| Cn1cc2cc(-n3nc(NC[C@@H]4CCC[C@@H](N)C4)c(Cl)c3-c3ccc(C#N)c(F)c3)ccc2n1 [Example 36, 4-(3-((((1R,3R)-3-aminocyclohexyl)methyl)amino)-4-chloro-1-(2-methyl-2H-indazol-5-yl)-1H-pyrazol-5-yl)-2-fluorobenzonitrile] | 500 to 1000 | < 500 | 1000 to 10000 |  |  |  |  |
| COc1ccc(-n2nc(NCC3CCNCC3)cc2-c2ccc(C#N)c(F)c2)cc1 [Example 2, 2-Fluoro-4-(1-(4-methoxyphenyl)-3-((piperidin-4-ylmethyl)amino)-1H-pyrazol-5-yl)benzonitrile] | < 500 |  | < 500 |  |  |  |  |
| CN[C@H]1CCC[C@H](CNc2cc(-c3ccc(C#N)c(F)c3)n(-c3ccc(OC)cc3)n2)C1 (single isomer, unassigned) [Example 33a] | 1000 to 10000 |  | 500 to 1000 |  |  |  |  |
| Cn1ncc2cc(-n3nc(NC[C@@H]4CN5CCC4CC5)cc3-c3ccc(C#N)c(F)c3)ccc21 (single isomer, unassigned) [Example 31a] |  |  | < 500 | 1000 to 10000 | < 500 |  |  |
| CN[C@@H]1CCC[C@@H](CNc2cc(-c3ccc(C#N)c(F)c3)n(-c3ccc(OC)cc3)n2)C1 (single isomer, unassigned) [Example 33b] | 1000 to 10000 |  | < 500 |  |  |  |  |
| CN1CCN(c2ccc(-n3nc(NC[C@H]4CCC[C@H](N)C4)cc3-c3ccc(C#N)c(F)c3)cc2)CC1 [Example 44, 4-(3-((((1S,3S)-3-aminocyclohexyl)methyl)amino)-1-(4-(4-methylpiperazin-1-yl)phenyl)-1H-pyrazol-5-yl)-2-fluorobenzonitrile] | < 500 | < 500 | 500 to 1000 |  |  |  |  |
| Cn1cc(-c2ccc(-n3nc(NC[C@H]4CCC[C@H](N)C4)cc3-c3ccc(C#N)c(F)c3)cc2)cn1 [Example 54, 4-(3-((((1S,3S)-3-aminocyclohexyl)methyl)amino)-1-(4-(1-methyl-1H-pyrazol-4-yl)phenyl)-1H-pyrazol-5-yl)-2-fluorobenzonitrile] | < 500 | < 500 | < 500 |  |  |  |  |
| COc1ccc(-n2nc(NC[C@H]3CC[C@@H](N)C3)cc2-c2ccc(C#N)c(F)c2)cc1 (single isomer, unassigned) [Example 4a] | < 500 |  | < 500 |  |  |  |  |
| COc1ccc(-n2nc(NCC3CC[C@@H](N)C3)cc2-c2ccc(C#N)c(F)c2)cc1 (mixture of isomers) [Example 4, rac-4-(3-((((1S,3R)-3-aminocyclopentyl)methyl)amino)-1-(4-methoxyphenyl)-1H-pyrazol-5-yl)-2-fluorobenzonitrile] | 1000 to 10000 |  | < 500 |  |  |  |  |
| N#Cc1ccc(-c2cc(NC[C@H]3CCC[C@H](N)C3)nn2-c2ccc(C(=O)N3CCCC3)cc2)cc1F [Example 63, 4-(3-((((1S,3S)-3-aminocyclohexyl)methyl)amino)-1-(4-(pyrrolidine-1-carbonyl)phenyl)-1H-pyrazol-5-yl)-2-fluorobenzonitrile] | < 500 | < 500 | < 500 |  |  |  |  |

— patent US20250032454A1, “KDM1A INHIBITORS FOR THE TREATMENT OF DISEASE” (Imago Biosciences, Inc., priority 2021, published 2025)
